In general, Ki refers to a dissociation constant, usually derived from enzyme kinetics or from competition with a known ligand. Low readings indicate higher affinity, high ones lower affinity.

One test has as its target T1, D(4) dopamine receptor (Homo sapiens, UniProt P21917).
T1 sequence (P21917 whole entry): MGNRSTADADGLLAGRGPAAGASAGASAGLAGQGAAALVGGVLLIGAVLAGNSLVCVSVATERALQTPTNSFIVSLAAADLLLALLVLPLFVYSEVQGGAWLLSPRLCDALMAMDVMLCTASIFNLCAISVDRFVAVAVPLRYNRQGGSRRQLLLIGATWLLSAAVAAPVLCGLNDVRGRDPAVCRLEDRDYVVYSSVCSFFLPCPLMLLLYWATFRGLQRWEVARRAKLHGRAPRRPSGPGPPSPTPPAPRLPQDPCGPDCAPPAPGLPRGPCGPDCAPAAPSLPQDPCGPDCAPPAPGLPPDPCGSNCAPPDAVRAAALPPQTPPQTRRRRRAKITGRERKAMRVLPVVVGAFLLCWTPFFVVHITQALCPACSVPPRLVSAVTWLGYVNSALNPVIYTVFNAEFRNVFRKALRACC

The target in the next test is D(3) dopamine receptor (Homo sapiens, UniProt P35462).
D(3) dopamine receptor, sequence (P35462 whole entry): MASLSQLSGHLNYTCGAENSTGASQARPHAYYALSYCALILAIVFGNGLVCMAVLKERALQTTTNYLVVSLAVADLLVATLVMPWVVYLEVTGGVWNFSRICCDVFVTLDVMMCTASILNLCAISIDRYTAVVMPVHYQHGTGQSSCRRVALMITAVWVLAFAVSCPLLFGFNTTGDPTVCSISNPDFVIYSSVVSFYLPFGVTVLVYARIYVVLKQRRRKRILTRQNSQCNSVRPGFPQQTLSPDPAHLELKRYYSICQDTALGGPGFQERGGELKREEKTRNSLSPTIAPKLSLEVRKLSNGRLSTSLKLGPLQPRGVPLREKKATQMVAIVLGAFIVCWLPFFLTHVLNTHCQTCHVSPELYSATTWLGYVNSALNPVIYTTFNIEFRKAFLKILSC

Description for D(3) dopamine receptor: Ability to displace [3H]spiperone from human dopamine receptor D3 (hD3) receptor stably expressed in HEK293 cells.
Description for D(4) dopamine receptor: Ability to displace [3H]spiperone from human dopamine receptor D4 (hD4) receptor stably expressed in HEK293 cells.

For `CC1(C(=O)/C=C(\O)c2ccc(Cl)cc2)CCN(Cc2ccccc2)CC1`, the inhibition constant Ki was 350 nM on D(4) dopamine receptor and 510 nM on D(3) dopamine receptor.

Turning to `O=C(/C=C(\O)c1ccc(Cl)cc1)C1CCN(Cc2ccccc2)CC1`, the Ki on D(4) dopamine receptor was 12 nM; at D(3) dopamine receptor it was 510 nM.

In the case of `c1ccc(CN2CCC(c3cc(-c4ccccc4)[nH]n3)CC2)cc1`, the inhibitory constant (Ki) on D(4) dopamine receptor came out at 11 nM; on D(3) dopamine receptor, 1400 nM.

As for `c1ccc(CCN2CCC(c3cc(-c4cccnc4)n[nH]3)CC2)cc1`, the inhibitory constant (Ki) on D(4) dopamine receptor is 23 nM; at D(3) dopamine receptor, greater than 4200 nM.

For the compound `Cc1c(C2CCN(Cc3ccccc3)CC2)n[nH]c1-c1ccc(Cl)cc1`, the values for the Ki at D(4) dopamine receptor and on D(3) dopamine receptor were 1.6 nM and 430 nM, respectively.

Turning to `c1ccc(CCN2CCC(c3cc(-c4ccccn4)[nH]n3)CC2)cc1`, the Ki at D(4) dopamine receptor came out at 22 nM; on D(3) dopamine receptor it was 3600 nM.

Turning to `c1ccc(CCN2CCN(c3cc(-c4ccccc4)[nH]n3)CC2)cc1`, the inhibition constant (Ki) at D(4) dopamine receptor amounted to 23 nM; on D(3) dopamine receptor, 1200 nM.

Take `c1ccc(CCN2CCC3(CCc4c(-c5ccccc5)n[nH]c43)CC2)cc1`: the Ki on D(4) dopamine receptor was 930 nM; at D(3) dopamine receptor, 600 nM.

For the compound `Clc1ccc(-c2cc(C3CCN(Cc4ccccc4Cl)CC3)[nH]n2)cc1`, the results for the Ki at D(4) dopamine receptor and on D(3) dopamine receptor were 20 nM and 1300 nM, respectively.

Consider `Clc1ccc(-c2cc(C3CCN(CC4CCCCC4)CC3)[nH]n2)cc1`, for which the Ki at D(4) dopamine receptor was found to be 13 nM; at D(3) dopamine receptor it was 720 nM.

On D(3) dopamine receptor, `Clc1ccc(CN2CCC(c3cc(-c4ccc(Cl)cc4)no3)CC2)cc1` registered an inhibitory constant (Ki) of 80 nM.

As for `Clc1ccc(-c2cc(C3CCNCC3)[nH]n2)cc1`, the Ki on D(4) dopamine receptor is greater than 3300 nM; on D(3) dopamine receptor, greater than 4400 nM.

Consider `Clc1ccc(-c2cc(C3CCN(Cc4ccccc4)CC3)[nH]n2)cc1`, for which the Ki on D(4) dopamine receptor stood at 9.1 nM; on D(3) dopamine receptor, 160 nM.

As to `Clc1ccc(-c2cc(C3CCN(Cc4ccccc4)C3)[nH]n2)cc1` (configuration not stated), the figures for the inhibition constant Ki on D(4) dopamine receptor and on D(3) dopamine receptor were 110 nM and 920 nM, respectively.

On to `Cc1cc(C2CCN(Cc3ccccc3)CC2)[nH]n1`, for which the Ki was determined as 470 nM on D(4) dopamine receptor and 3400 nM at D(3) dopamine receptor.

Regarding `Clc1ccc(-c2cc(C3CCN(CCCc4ccccc4)CC3)[nH]n2)cc1`, the Ki is 110 nM on D(4) dopamine receptor and 870 nM on D(3) dopamine receptor.

For `c1ccc(Cc2cc(C3CCN(Cc4ccccc4)CC3)[nH]n2)cc1`, the Ki is 160 nM on D(4) dopamine receptor and 2100 nM at D(3) dopamine receptor.

Turning to `c1ccc(CCN2CCC(c3cc(-c4cccs4)[nH]n3)CC2)cc1`, the results for the inhibition constant (Ki) at D(4) dopamine receptor and on D(3) dopamine receptor were 19 nM and 1100 nM, respectively.

With `c1ccc(CCN2CCC(c3cc(C4CCCCC4)n[nH]3)CC2)cc1`, the inhibition constant Ki stood at 10 nM on D(4) dopamine receptor and 1200 nM at D(3) dopamine receptor.

Turning to `Clc1ccc(-c2cc(C3CCN(Cc4cccc(Cl)c4)CC3)[nH]n2)cc1`, the results for the Ki at D(4) dopamine receptor and at D(3) dopamine receptor were 60 nM and 4300 nM, respectively.

Regarding `Nc1nc(-c2ccc(Cl)cc2)cc(C2CCN(Cc3ccccc3)CC2)n1`, the figures for the inhibitory constant (Ki) at D(4) dopamine receptor and on D(3) dopamine receptor were 1 nM and 140 nM, respectively.

Turning to `CCc1c(C2CCN(Cc3ccccc3)CC2)n[nH]c1-c1ccc(Cl)cc1`, the Ki is 1.5 nM at D(4) dopamine receptor and 46 nM on D(3) dopamine receptor.

In the case of `c1ccc(CCN2CCC(c3cc(-c4ccncc4)n[nH]3)CC2)cc1`, the Ki was 52 nM on D(4) dopamine receptor and greater than 4000 nM on D(3) dopamine receptor.

Turning to `CC1(c2cc(-c3ccc(Cl)cc3)[nH]n2)CCN(Cc2ccccc2)CC1`, the Ki on D(4) dopamine receptor turned out to be 47 nM; at D(3) dopamine receptor, 1300 nM.

For `Cc1c(-c2ccccc2)n[nH]c1C1=CCN(CCc2ccccc2)CC1`, the inhibition constant Ki on D(4) dopamine receptor amounted to 3.1 nM; at D(3) dopamine receptor, 830 nM.

In the case of `CN1CCC(c2cc(-c3ccc(Cl)cc3)[nH]n2)CC1`, the Ki on D(4) dopamine receptor was 1200 nM; on D(3) dopamine receptor it was greater than 1900 nM.

Turning to `Cc1c(-c2ccc(Cl)cc2)nc(N)nc1C1CCN(CCc2ccccc2)CC1`, the Ki on D(4) dopamine receptor came out at 4.7 nM; on D(3) dopamine receptor, 1100 nM.

`Clc1ccc(-c2cc(C3CCCN(Cc4ccccc4)C3)[nH]n2)cc1` (configuration not stated): the Ki on D(4) dopamine receptor stood at 410 nM; at D(3) dopamine receptor it was 240 nM.

Turning to `Clc1ccc(-c2cc(C3CCCCN3Cc3ccccc3)[nH]n2)cc1` (configuration not stated), the inhibition constant Ki on D(4) dopamine receptor amounted to 4800 nM; on D(3) dopamine receptor, 1800 nM.

Values taken from ChEMBL document CHEMBL1130098, “4-Heterocyclylpiperidines as selective high-affinity ligands at the human dopamine D4 receptor” (J Med Chem, 1997).
